Patent US8772494B2, “N-aryl piperidine substituted biphenylcarboxamides as inhibitors of apolipoprotein b” (Janssen Pharmaceutica N.V., priority 2003, dated 2014)

How the values were obtained:
[1] = target: MTP (Homo sapiens, UniProt P55157); assay: MTP assay (triglyceride transfer from donor to acceptor vesicles); type: biochemical; details: MTP activity, percent triglyceride transfer, 37° C.; read-out: pIC50 values (= −log IC50 value) (converted)
Procedure: MTP activity was measured using an assay similar to one described by J. R. Wetterau and D. B. Zilversmit in Chemistry and Physics of Lipids, 38, 205-222 (1985). To prepare the donor and acceptor vesicles, the appropriate lipids in chloroform were put into a glass test tube and dried under a stream of N2. A buffer containing 15 mM Tris-HCl pH 7.5, 1 mM EDTA, 40 mM NaCl, 0.02% NaN3 (assay buffer) was added to the dried lipid. The mixture was vortexed briefly and the lipids were then allowed to hydrate for 20 min on ice. Vesicles were then prepared by bath sonication (Branson 2200) at room temperature for maximum 15 min. Butylated hydroxytoluene was included in all vesicle preparations at a concentration of 0.1%. The lipid transfer assay mixture contained donor vesicles (40 nmol phosphatidylcholine, 7.5 mol % of cardiolipin and 0.25 mol % glycerol tri [1-^14C]-oleate), acceptor vesicles (240 nmol phosphatidylcholine) and 5 mg BSA in a total volume of 675 μl in a 1.5 ml microcentrifuge tube. Test compounds were added dissolved in DMSO (0.13% final concentration). After 5 minutes of pre-incubation at 37° C., the reaction was started by the addition of MTP in 100 μl dialysis buffer. The reaction was stopped by the addition of 400 μl DEAE-52 cellulose pre-equilibrated in 15 mM Tris-HCl pH 7.5, 1 mM EDTA, 0.02% NaN3 (1:1, vol/vol). The mixture was agitated for 4 min and centrifuged for 2 min at maximum speed in an Eppendorf centrifuge (4° C.) to pellet the DEAE-52-bound donor vesicles. An aliquot of the supernatant containing the acceptor liposomes was counted and the [^14C]-counts were used to calculate the percent triglyceride transfer from donor to acceptor vesicles.
Resulting IC50 values are enumerated in Table C.2. When the calculated IC50 was below 7, not enough data points were available at the tested concentrations to calculate an IC50 value.

[2] = tested on: ApoB secretion, HepG2 cells; assay: Quantification of the secretion of ApoB; type: cell-based; details: Homo sapiens, 24 hours of incubation, secreted apoB immunoprecipitated, read-out: pIC50 values (= −log IC50 value) (converted)
Procedure: HepG2 cells were cultured in 24-well plates in MEM Rega 3 containing 10% fetal calf serum. At 70% confluency, the medium was changed and the test compound or carrier (DMSO, 0.4% final concentration) was added. After 24 hours of incubation, the medium was transferred to Eppendorf tubes and cleared by centrifugation. A sheep antibody directed against either apoB was added to the supernatant and the mixture was kept at 8° C. for 24 hours. Then, rabbit anti-sheep antibody was added and the immune complex was allowed to precipitate for 24 hours at 8° C. The immunoprecipitate was pelleted by centrifugation for 25 minutes at 1320 g and washed twice with a buffer containing 40 mM Mops, 40 mM NaH2PO4, 100 mM NaF, 0.2 mM DTT, 5 mM EDTA, 5 mM EGTA, 1% Triton-X-100, 0.5% sodium deoxycholate (DOC), 0.1% SDS, 0.2 μM leupeptin and 0.2 μM PMSF. Radioactivity in the pellet was quantified by liquid scintillation counting.
Resulting IC50 values are enumerated in Table C.1. When the calculated IC50 was below 6, not enough data points were available at the tested concentrations to calculate an IC50 value.

MTP, sequence (P55157 19-894, species assumed): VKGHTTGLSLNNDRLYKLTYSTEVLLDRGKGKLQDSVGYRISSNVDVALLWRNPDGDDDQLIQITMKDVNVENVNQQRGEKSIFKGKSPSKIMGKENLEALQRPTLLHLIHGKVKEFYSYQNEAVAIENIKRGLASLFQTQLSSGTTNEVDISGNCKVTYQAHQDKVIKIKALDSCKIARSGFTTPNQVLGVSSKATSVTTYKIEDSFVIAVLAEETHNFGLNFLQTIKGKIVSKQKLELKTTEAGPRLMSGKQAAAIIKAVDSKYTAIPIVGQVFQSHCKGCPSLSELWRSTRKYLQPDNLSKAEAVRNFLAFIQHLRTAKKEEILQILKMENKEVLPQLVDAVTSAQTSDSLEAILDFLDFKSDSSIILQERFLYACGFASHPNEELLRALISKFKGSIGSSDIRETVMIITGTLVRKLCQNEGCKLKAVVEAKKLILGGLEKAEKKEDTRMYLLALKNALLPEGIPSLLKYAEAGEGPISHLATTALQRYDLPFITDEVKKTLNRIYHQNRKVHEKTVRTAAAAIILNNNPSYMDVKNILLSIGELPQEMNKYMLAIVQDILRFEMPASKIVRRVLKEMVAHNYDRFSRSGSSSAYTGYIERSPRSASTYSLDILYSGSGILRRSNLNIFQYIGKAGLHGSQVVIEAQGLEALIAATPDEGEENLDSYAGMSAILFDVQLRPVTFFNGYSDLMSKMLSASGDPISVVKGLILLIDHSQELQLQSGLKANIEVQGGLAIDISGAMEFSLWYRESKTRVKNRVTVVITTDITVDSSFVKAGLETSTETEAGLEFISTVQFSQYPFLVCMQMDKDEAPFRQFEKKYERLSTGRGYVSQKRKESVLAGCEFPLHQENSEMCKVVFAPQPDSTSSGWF
MTP, sequence (P07237 18-508 partner, species assumed): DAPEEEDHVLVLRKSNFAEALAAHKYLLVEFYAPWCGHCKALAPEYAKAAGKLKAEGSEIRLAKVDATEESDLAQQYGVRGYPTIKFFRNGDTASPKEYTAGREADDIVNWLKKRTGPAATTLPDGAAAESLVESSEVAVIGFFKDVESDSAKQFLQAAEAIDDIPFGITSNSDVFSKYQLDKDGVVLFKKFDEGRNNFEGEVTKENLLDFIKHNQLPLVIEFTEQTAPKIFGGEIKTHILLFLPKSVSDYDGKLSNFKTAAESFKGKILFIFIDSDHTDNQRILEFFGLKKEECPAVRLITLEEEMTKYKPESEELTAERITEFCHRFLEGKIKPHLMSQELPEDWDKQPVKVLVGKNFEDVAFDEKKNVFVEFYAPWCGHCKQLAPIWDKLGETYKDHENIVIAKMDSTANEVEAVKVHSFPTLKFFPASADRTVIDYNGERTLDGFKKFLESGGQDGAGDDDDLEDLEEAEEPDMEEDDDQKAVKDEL

Row | IC50 [1] | IC50 [2] | Compound
1 | > 0.1 µM | > 1 µM | CCOC(=O)C1CCCCN1C(=O)CC1CCN(c2ccc(NC(=O)c3ccccc3-c3ccc(C(F)(F)F)cc3)cc2)CC1 (stereo not shown) [Compound 1]
2 | > 1 µM | 0.0653 µM | CCOC(=O)C1CCCN(C(=O)CC2CCN(c3ccc(NC(=O)c4ccccc4-c4ccc(C(F)(F)F)cc4)cc3)CC2)C1 (stereo not shown) [Compound 2]
3 | 0.00782 µM | 0.0614 µM | COC(=O)C(C)NC(=O)CC1CCN(c2ccc(NC(=O)c3ccccc3-c3ccc(C(F)(F)F)cc3)cc2)CC1 (stereo not shown) [Compound 3]
4 | 0.00206 µM | < 0.03 µM | CCOC(=O)C(C)NC(=O)CC1CCN(c2ccc(NC(=O)c3ccccc3-c3ccc(C(F)(F)F)cc3)cc2)CC1 (stereo not shown) [Compound 5]
5 | 0.00931 µM | < 0.03 µM | CCOC(=O)C(Cc1c[nH]c2ccccc12)NC(=O)CC1CCN(c2ccc(NC(=O)c3ccccc3-c3ccc(C(F)(F)F)cc3)cc2)CC1 (stereo not shown) [Compound 6]
6 | 0.0255 µM | 0.138 µM | CCOC(=O)C(CCSC)NC(=O)CC1CCN(c2ccc(NC(=O)c3ccccc3-c3ccc(C(F)(F)F)cc3)cc2)CC1 (stereo not shown) [Compound 7]
7 | 0.0201 µM | < 0.03 µM | CCOC(=O)CC(NC(=O)CC1CCN(c2ccc(NC(=O)c3ccccc3-c3ccc(C(F)(F)F)cc3)cc2)CC1)c1ccc2c(c1)OCO2 (stereo not shown) [Compound 8]
8 | > 0.1 µM | > 1 µM | CCOC(=O)[C@H]1CCCN1C(=O)CC1CCN(c2ccc(NC(=O)c3ccccc3-c3ccc(C(F)(F)F)cc3)cc2)CC1 [Compound 13]
9 | > 0.1 µM | > 1 µM | COC(=O)C1C[C@@H](O)CN1C(=O)CC1CCN(c2ccc(NC(=O)c3ccccc3-c3ccc(C(F)(F)F)cc3)cc2)CC1 (stereo partly shown) [Compound 15]
10 | > 0.1 µM | > 1 µM | COC(=O)[C@@H]1C[C@H](O)CN1C(=O)CC1CCN(c2ccc(NC(=O)c3ccccc3-c3ccc(C(F)(F)F)cc3)cc2)CC1 [Compound 16]
11 | 0.0056 µM | > 1 µM | CCOC(=O)[C@H](C)NC(=O)CC1CCN(c2ccc(NC(=O)c3ccccc3-c3ccc(C(F)(F)F)cc3)cc2)CC1 [Compound 17]
12 | > 0.1 µM | 0.116 µM | CCOC(=O)[C@@H](NC(=O)CC1CCN(c2ccc(NC(=O)c3ccccc3-c3ccc(C(F)(F)F)cc3)cc2)CC1)C(C)C [Compound 19]
13 | 0.0767 µM | 0.841 µM | CCOC(=O)[C@H](Cc1ccccc1)NC(=O)CC1CCN(c2ccc(NC(=O)c3ccccc3-c3ccc(C(F)(F)F)cc3)cc2)CC1 [Compound 24]
14 | – | > 1 µM | CCOC(=O)[C@@H](Cc1ccccc1)NC(=O)CC1CCN(c2ccc(NC(=O)c3ccccc3-c3ccc(C(F)(F)F)cc3)cc2)CC1 [Compound 25]
15 | > 0.1 µM | > 1 µM | COC(=O)[C@H](CCCN)NC(=O)CC1CCN(c2ccc(NC(=O)c3ccccc3-c3ccc(C(F)(F)F)cc3)cc2)CC1 [Compound 28]
16 | > 0.1 µM | > 1 µM | COC(=O)[C@H](CCCCN)NC(=O)CC1CCN(c2ccc(NC(=O)c3ccccc3-c3ccc(C(F)(F)F)cc3)cc2)CC1 [Compound 29]
17 | 0.022 µM | 0.575 µM | CCOC(=O)[C@H](CC(C)C)NC(=O)CC1CCN(c2ccc(NC(=O)c3ccccc3-c3ccc(C(F)(F)F)cc3)cc2)CC1 [Compound 30]
18 | 0.0695 µM | > 1 µM | CCOC(=O)CN(C)C(=O)CC1CCN(c2ccc(NC(=O)c3ccccc3-c3ccc(C(F)(F)F)cc3)cc2)CC1 [Compound 33]
19 | 0.0394 µM | – | CCOC(=O)C[C@H](NC(=O)CC1CCN(c2ccc(NC(=O)c3ccccc3-c3ccc(C(F)(F)F)cc3)cc2)CC1)C(=O)OCC [Compound 36]
20 | 0.0149 µM | 0.152 µM | CCOC(=O)C(C)(C)NC(=O)CC1CCN(c2ccc(NC(=O)c3cccc(C)c3-c3ccc(C(F)(F)F)cc3)cc2)CC1 [Compound 42]
21 | – | 0.962 µM | CCOC(=O)[C@H](C)NC(=O)CC1CCN(c2ccc(NC(=O)c3cccc(C)c3-c3ccc(C(F)(F)F)cc3)cn2)CC1 [Compound 45]
22 | – | 0.67 µM | CCOC(=O)[C@H](C)NC(=O)CC1CCN(c2ccc(NC(=O)c3cccc(C)c3-c3ccc(C(F)(F)F)cc3)nc2)CC1 [Compound 48]

The next lines start with the compound.

Row | Compound | IC50 [1] | IC50 [2]
23 | COC(=O)C(NC(=O)CC1CCN(c2ccc(NC(=O)c3ccccc3-c3ccc(C(F)(F)F)cc3)cc2)CC1)C(C)C (stereo not shown) [Compound 4] | 0.0413 µM | 0.0485 µM
24 | COC(=O)[C@H]1CCCCN1C(=O)CC1CCN(c2ccc(NC(=O)c3ccccc3-c3ccc(C(F)(F)F)cc3)cc2)CC1 [Compound 9] | > 0.1 µM | > 1 µM
25 | COC(=O)[C@@H]1CCCCN1C(=O)CC1CCN(c2ccc(NC(=O)c3ccccc3-c3ccc(C(F)(F)F)cc3)cc2)CC1 [Compound 10] | > 0.1 µM | > 1 µM
26 | CCOC(=O)[C@H]1CCCN(C(=O)CC2CCN(c3ccc(NC(=O)c4ccccc4-c4ccc(C(F)(F)F)cc4)cc3)CC2)C1 [Compound 11] | > 0.1 µM | > 1 µM
27 | CCOC(=O)[C@@H]1CCCN(C(=O)CC2CCN(c3ccc(NC(=O)c4ccccc4-c4ccc(C(F)(F)F)cc4)cc3)CC2)C1 [Compound 12] | > 0.1 µM | > 1 µM
28 | CCOC(=O)[C@@H]1C[C@@H](O)CN1C(=O)CC1CCN(c2ccc(NC(=O)c3ccccc3-c3ccc(C(F)(F)F)cc3)cc2)CC1 [Compound 14] | > 0.1 µM | > 1 µM
29 | CCOC(=O)[C@@H](C)NC(=O)CC1CCN(c2ccc(NC(=O)c3ccccc3-c3ccc(C(F)(F)F)cc3)cc2)CC1 [Compound 18] | 0.00342 µM | < 0.03 µM
30 | CCOC(=O)[C@H](NC(=O)CC1CCN(c2ccc(NC(=O)c3ccccc3-c3ccc(C(F)(F)F)cc3)cc2)CC1)C(C)C [Compound 20] | 0.00637 µM | < 0.03 µM
31 | CCOC(=O)[C@H](NC(=O)CC1CCN(c2ccc(NC(=O)c3ccccc3-c3ccc(C(F)(F)F)cc3)cc2)CC1)c1ccccc1 [Compound 21] | 0.00337 µM | 0.121 µM
32 | CCOC(=O)[C@@H](NC(=O)CC1CCN(c2ccc(NC(=O)c3ccccc3-c3ccc(C(F)(F)F)cc3)cc2)CC1)c1ccccc1 [Compound 22] | 0.00893 µM | 0.0548 µM
33 | CCOC(=O)CCNC(=O)CC1CCN(c2ccc(NC(=O)c3ccccc3-c3ccc(C(F)(F)F)cc3)cc2)CC1 [Compound 26] | 0.00841 µM | 0.0586 µM
34 | COC(=O)[C@H](CCN)NC(=O)CC1CCN(c2ccc(NC(=O)c3ccccc3-c3ccc(C(F)(F)F)cc3)cc2)CC1 [Compound 27] | > 0.1 µM | 0.643 µM
35 | CCOC(=O)[C@H](Cc1ccc(O)cc1)NC(=O)CC1CCN(c2ccc(NC(=O)c3ccccc3-c3ccc(C(F)(F)F)cc3)cc2)CC1 [Compound 31] | 0.0811 µM | > 1 µM
36 | CCOC(=O)[C@@H]1CCCN1C(=O)CC1CCN(c2ccc(NC(=O)c3ccccc3-c3ccc(C(F)(F)F)cc3)cc2)CC1 [Compound 32] | 0.0316 µM | 0.406 µM
37 | CCOC(=O)CC[C@H](NC(=O)CC1CCN(c2ccc(NC(=O)c3ccccc3-c3ccc(C(F)(F)F)cc3)cc2)CC1)C(=O)OCC [Compound 34] | 0.0121 µM | > 1 µM
38 | CCOC(=O)C1CCN(C(=O)CC2CCN(c3ccc(NC(=O)c4ccccc4-c4ccc(C(F)(F)F)cc4)cc3)CC2)CC1 [Compound 35] | > 0.1 µM | > 1 µM
39 | CCOC(=O)CNC(=O)CC1CCN(c2ccc(NC(=O)c3ccccc3-c3ccc(C(F)(F)F)cc3)cc2)CC1 [Compound 37] | 0.00501 µM | 0.0448 µM
40 | COC(=O)CNC(=O)CC1CCN(c2ccc(NC(=O)c3cccc(C)c3-c3ccc(C(F)(F)F)cc3)cc2)CC1 [Compound 43] | 0.0104 µM | 0.00703 µM
41 | COC(=O)[C@H](C)NC(=O)CC1CCN(c2ccc(NC(=O)c3cccc(C)c3-c3ccc(C(F)(F)F)cc3)cc2)CC1 [Compound 46] | – | 0.218 µM
42 | CCOC(=O)[C@H](C)NC(=O)CC1CCN(c2ccc(N(C)C(=O)c3ccccc3-c3ccc(C(F)(F)F)cc3)cc2)CC1 [Compound 47] | – | > 1 µM
43 | CCOC(=O)[C@H](C)NC(=O)CC1CCN(c2ccc(N(C)C(=O)c3cccc(C)c3-c3ccc(C(F)(F)F)cc3)cn2)CC1 [Compound 50] | 0.0104 µM | –
